Measurements from patent US9687467B2, “Diagnosis and treatment of taxane-resistant cancers” (Children's Medical Center Corporation, priority 2011, dated 2017).
Read-outs that look alike come from different tables or passages of the source.

Columns and labels:
[1] = test system: T20.2 cells; experiment: cells; format: cell-based; settings: Homo sapiens
Method: (FIG. 7A). The parental A549 cells, a cell line that became refractory during in vivo treatment with paclitaxel (T20.2 round 1) and the same cell line established after yet another round of in vivo paclitaxel treatment (T20.2 reinjection) were treated with paclitaxel and cell viability was assessed using the MTT assay. Represented are average LC50±s.e.m. determined by MTT assay for parental A549 cells (white boxes), **P<0.001, *P<0.05 as determined by Wilcoxon's rank sum test for T20.2 round 1 cells (hatched boxes) and for T20.2 re-injection cells (filled boxes). (FIG. 7B) The expression of miR-135a was examined in these cells by qRT-PCR. *P<0.05 as determined by Wilcoxon's rank sum test. […] The correlation between paclitaxel response and miR-135a expression was calculated using the Spearman's rank test. […] Subsequently, cells were treated with the indicated concentrations of paclitaxel and cell viability was assessed using the MTT assay. […]
Approximately 4×10^6 human A549 NSCLC cells were resuspended in 50% Matrigel (BD Biosciences, Bedford, Mass.) and injected subcutaneously into the hind flanks of 8-wk old male athymic (nu/nu) nude mice (Taconic Farms, Inc., Hudson, N.Y.). […] Tumor size was determined by digital caliper measurements (length and width in mm), and tumor volume (mm^3) was estimated using the formula (length×width^2)/2. […]

[2] = test system: MES-SA^DX5 cells; experiment: MTT cell viability assay, paclitaxel response after miRNA transfection; format: cell-based, human; settings: cells transfected with scrambled non-targeting miRNA, 100 nM paclitaxel
Method: The paclitaxel-resistant cell lines MES-SA^DX5 and A549^TR were transfected with a scrambled non-targeting miRNA (control) and an miR-135a mimic (mimic), respectively. Cells were subsequently treated with 100 nM paclitaxel and cell viability was assessed using the MTT assay (FIGS. 2A, 2B). The percentage of apoptotic cells was assessed by Annexin V-staining and FACS analysis (FIGS. 2C, 2D). Values are presented as percent cell survival in paclitaxel-treated cells relative to untreated cells. *P<0.05, **P<0.001 as determined by Wilcoxon's rank sum test.
Cell growth inhibition was determined by a 3-(4,5-dimethylthiazol-2-yl)-2,5-diphenyltetrazolium (MTT) bromide assay. Briefly, ˜2.5×10^4 cells were plated in a 96-well plate and paclitaxel was added in appropriate concentrations 24 hours later. […] Absorbance was determined using a 96-well SpectraMax plate reader (Molecular Devices, Sunnyvale, Calif.) at 560 nm and 650 nm (background).
Double-stranded RNA oligos representing a mature sequence that mimics endogenous miR-135a, anti-miR-135a designed to inhibit endogenous miR-135a, and anti-miR negative control were all obtained from Ambion™ and were transfected into cell lines at ˜50% confluence at 30 nM concentration with siLentFect (Bio-Rad™). […] The next day, luciferase activity was measured using the Dual-Glo® Luciferase assay system (Promega™, Madison, Wis.). […]

[3] = Mouse weight during paclitaxel treatment; format: in vivo, nude mice; settings: 15 mg/kg paclitaxel intraperitoneally 3 times per week
Method: FIG. 11 is a line graph indicating mouse weight in paclitaxel-treated and control groups. Tumor-bearing nude mice were treated i.p. with 15 mg/kg paclitaxel every other day. Animals were weighed before each injection on a digital scale. Each curve represents the mean weight±s.e.m. of 10 mice per day of treatment.
Approximately 4×10^6 human A549 NSCLC cells were resuspended in 50% Matrigel (BD Biosciences, Bedford, Mass.) and injected subcutaneously into the hind flanks of 8-wk old male athymic (nu/nu) nude mice (Taconic Farms, Inc., Hudson, N.Y.). When the average tumor volume reached ˜150 mm^3, mice (N=10 per group) were randomly assigned to the treatment or control group (Day 0). Mice were treated with vehicle (control) or 15 mg/kg paclitaxel (Bristol-Myers Squibb Co, Princeton, N.J.) intraperitoneally 3 times per week (on Mondays, Wednesdays, and Fridays). […] Tumor size was determined by digital caliper measurements (length and width in mm), and tumor volume (mm^3) was estimated using the formula (length×width^2)/2. Effects on tumor growth rate were assessed per mouse by determining the tumor volume on the day of treatment relative to the tumor volume on Day 0. Animals were sacrificed once morbidity became evident or their tumor size exceeded 1000 mm^3. […]

CC(=O)O[C@H]1C(=O)[C@@]2(C)[C@H]([C@H](OC(=O)c3ccccc3)[C@]3(O)C[C@H](OC(=O)[C@H](O)[C@@H](NC(=O)c4ccccc4)c4ccccc4)C(C)=C1C3(C)C)[C@]1(OC(C)=O)CO[C@@H]1C[C@@H]2O [paclitaxel]
CC50 ([1]; read-out: median LC50, after one in vivo passage (T20.2 round 1), MTT, P=0.030): 13.3 nM | CC50 ([1]; read-out: median LC50, after re-injection (T20.2 reinjection), MTT, P=0.008): 127 nM | cell survival in paclitaxel-treated cells relative to untreated cells [2]: 102.2% | mouse morbidity as measured by mouse weight [3]: minimal effects on mouse morbidity
